Test results from patent US20060084790A1, “P-Rex1, a ptdins (3,4,5) p3-g-beta-gamma-regulated guanine-nucleotide exchange factor for rac” (The Babraham Institute, priority 2002, published 2006).
Each block holds one molecule with its values, some of them ahead of it.

Key:
[1] = biological target: T1, recombinant human P-Rex1 (Homo sapiens, UniProt Q8TCU6, A1118T/K1340E); experiment: Rac-GEF assay for recombinant P-Rex1 ([35S]-GTPγS loading of EE-Rac1, liposomes); assay type: biochemical
T1 construct: made in house; host or cells: Sf9 cells (baculovirus, pAc0G1 vector)
T1 sequence (Q8TCU6 whole entry A1118T/K1340E): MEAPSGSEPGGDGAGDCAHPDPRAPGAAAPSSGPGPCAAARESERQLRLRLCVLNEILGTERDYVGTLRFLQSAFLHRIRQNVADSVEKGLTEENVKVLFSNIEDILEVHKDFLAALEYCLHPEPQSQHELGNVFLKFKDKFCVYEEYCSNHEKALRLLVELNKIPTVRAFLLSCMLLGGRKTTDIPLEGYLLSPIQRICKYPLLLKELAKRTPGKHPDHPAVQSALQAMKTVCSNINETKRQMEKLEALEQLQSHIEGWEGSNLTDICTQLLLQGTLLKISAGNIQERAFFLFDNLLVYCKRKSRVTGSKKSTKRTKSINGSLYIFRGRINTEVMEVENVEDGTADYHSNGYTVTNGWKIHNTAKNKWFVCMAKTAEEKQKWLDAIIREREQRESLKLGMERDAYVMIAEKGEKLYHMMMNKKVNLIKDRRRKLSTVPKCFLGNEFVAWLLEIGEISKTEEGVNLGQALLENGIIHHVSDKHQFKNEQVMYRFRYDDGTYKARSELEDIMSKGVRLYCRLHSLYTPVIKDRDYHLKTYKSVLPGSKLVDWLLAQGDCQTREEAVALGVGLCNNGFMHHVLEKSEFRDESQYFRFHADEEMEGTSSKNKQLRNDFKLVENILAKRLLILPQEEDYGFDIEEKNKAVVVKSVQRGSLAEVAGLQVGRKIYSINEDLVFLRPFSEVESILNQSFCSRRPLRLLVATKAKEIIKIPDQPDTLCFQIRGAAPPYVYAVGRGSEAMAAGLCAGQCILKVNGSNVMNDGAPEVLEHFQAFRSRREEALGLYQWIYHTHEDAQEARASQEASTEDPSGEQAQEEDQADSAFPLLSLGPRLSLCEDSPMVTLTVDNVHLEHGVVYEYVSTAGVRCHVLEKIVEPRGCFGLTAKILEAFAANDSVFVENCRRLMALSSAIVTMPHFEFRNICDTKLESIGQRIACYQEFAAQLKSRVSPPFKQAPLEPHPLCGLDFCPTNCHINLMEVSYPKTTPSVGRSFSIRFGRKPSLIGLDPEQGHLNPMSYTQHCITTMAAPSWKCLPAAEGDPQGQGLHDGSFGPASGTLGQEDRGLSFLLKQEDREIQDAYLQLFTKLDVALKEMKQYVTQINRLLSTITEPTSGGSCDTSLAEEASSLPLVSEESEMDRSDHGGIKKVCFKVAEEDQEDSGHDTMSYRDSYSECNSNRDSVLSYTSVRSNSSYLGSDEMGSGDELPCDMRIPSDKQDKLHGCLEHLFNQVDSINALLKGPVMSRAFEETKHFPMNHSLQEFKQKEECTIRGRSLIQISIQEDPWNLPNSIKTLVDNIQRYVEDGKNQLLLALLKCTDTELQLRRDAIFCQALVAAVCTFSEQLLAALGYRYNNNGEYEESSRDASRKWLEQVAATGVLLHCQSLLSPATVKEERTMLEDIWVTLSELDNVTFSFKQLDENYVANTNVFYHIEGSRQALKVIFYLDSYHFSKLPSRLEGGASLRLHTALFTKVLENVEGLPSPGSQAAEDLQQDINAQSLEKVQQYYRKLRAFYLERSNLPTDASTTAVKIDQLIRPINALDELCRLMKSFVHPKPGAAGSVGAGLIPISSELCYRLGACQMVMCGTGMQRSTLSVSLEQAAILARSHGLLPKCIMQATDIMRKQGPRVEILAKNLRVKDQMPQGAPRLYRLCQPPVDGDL
Experimental: Liposomes (phosphatidylcholine (PtdCho), phosphatidylserine (PtdS), phosphatidylinositol (PtdIns), final assay concentration 200 μM each) were sonicated in lipid buffer (20 mM Hepes/NaOH pH 7.5 (4° C.), 100 mM NaCl, 1 mM EGTA) with or without PtdIns(3,4,5)P3 (final assay concentration 10 μM) and incubated for 10 min on ice with 2 μl of purified, GDP-loaded, recombinant, lipid-modified EE-Rac1 in 5 mM MgCl2, 50 mg/ml BSA, 5 mM DTT, 20 mM Hepes/NaOH pH 7.5 (4° C.), 100 mM NaCl, 1 mM EGTA (final assay concentration 100 nM EE-Rac1, 0.0024% cholate). Then 4 μl of Rac-GEF activity (cytosol, column fractions, or recombinant P-Rex1) was added, followed by 2 μl of GTPγS (in lipid buffer, final assay concentration 5 μM, including 1 μCi [^35S]-GTPγS). After 10 min at 30° C., the reaction was stopped and EE-Rac1 pulled down using anti-EE antibodies coupled to protein G-sepharose, and [^35S]-GTPγS-loading of Rac was detected by scintillation β-counting. Recombinant P-Rex1 was diluted in ‘buffer A’ (20 mM Hepes/NaOH pH 7.5 (4° C.), 1% betaine, 0.01% Na azide, 0.5 mM EGTA, 200 mM KCl, 10% ethylene glycol) to a final assay concentration of 50 nM. In assays with Gβγ, 2 μl of Gβγ in ‘buffer A’ were added to the liposome/Rac mix before the 10 min on ice, and P-Rex1 was added as 5×.

[2] = Protein phosphatase assay with para-nitrophenolphosphate; assay type: biochemical; conditions: P-Rex1 up to 192 nM
From the text: We also used para-nitrophenolphosphate as a broad-spectrum substrate in a protein phosphatase assay, using calf intestinal alkaline phosphatase and MEG-2 tyrosine phosphatase as controls.

[3] = Inositol polyphosphate 4-phosphatase (lipid phosphatase) assay; assay type: biochemical; conditions: P-Rex1 up to 1.45 μM
[4] = tested on: PAE cells; experiment: Immunofluorescence microscopy of lamellipodia formation in myc-P-Rex1 transfected PAE cells; assay type: cell-based, pig
Experimental: Pig aortic endothelial (PAE) cells were transiently transfected with pCMV3-myc-P-Rex1 or pCMV3-myc-DAPP1 by electroporation, grown on coverslips for 10 h and then serum starved for 8 h. They were then treated or not with 100 nM wortmannin for 10 min followed by stimulation with varying doses of PDGF for 5 min. Cells were fixed and prepared for immunofluorescence microscopy by staining of P-Rex1 and DAPP1 with anti-myc epitope-tag primary and FITC-goat anti-mouse secondary antibodies and filamentuous actin with TRITC-phalloidin as previously described (Welch et al. 1998).

[5] = tested on: P-Rex1; experiment: Surface plasmon resonance (Biacore) binding of P-Rex1 to phospholipid vesicles; parameters: species or system human; conditions: 6 mol-% phosphoinositide; 100 nM P-Rex1; FIG. 5C
Chain of P-Rex1 (Q8TCU6 whole entry A1118T/K1340E): as above
Experimental: Assays were conducted as described (Ellson et al. 2001), using mixed phospholipid vesicles (PtdCho, PtdS, phosphatidylethanolamine (PtdE), 330 μM each final concentration) with or without added phosphoinositides (6 mol-% final concentration) to load the L1 vesicle capture chip (Biacore) prior to the injection of 100 nM purified recombinant Sf9-cell derived P-Rex1.

[6] = tested on: neutrophil cytosol and low-density membranes (ROS formation); experiment: ROS formation assay with neutrophil cytosol and membrane fractions; assay type: biochemical, pig; conditions: added as liposomes, biological diastereoisomer; FIG. 1B
Experimental: Neutrophil-enriched leukocytes were isolated from pigs' blood, sonicated in 0.25 M sucrose, 0.1 M KCl, 50 mM Hepes/NaOH pH 7.2 (4° C.), 1 mM DTT, 2 mM EGTA, 0.1 mM PMSF and 1× antiproteases (20 μg/ml of each antipain, aprotinin, pepstatin and leupetin) and centrifuged (100,000×g, 1 h, 4° C.) to yield cytosol and light membrane fractions (4.5 mg/ml protein, collected between 0.60 and 1.35 M sucrose and washed in sonication buffer). Light membranes (3 μl) were pre-mixed with Gβγ subunits, p101/p110γ-PI3K and/or N17-Rac (or boiled controls) in 6 μl containing 5 mM ATP, 8 mM MgCl2, 20 mM Hepes/NaOH pH 7.5 (4° C.), 2 mM EGTA, 10 mM β-glycerophosphate, 0.1 mM ortho-vanadate, 0.1 M KCl, 1 mM DTT, 0.01% (w/v) Na azide. After 25 min on ice, 20 μl was added containing 15 μl cytosol and 1 mM MgGTP, 20 μM FAD, 400 μM NADPH and 200 μM luminol. After 8 min at RT, single photon counts (SPC) per 0.1 min were quantitated in a scintillation counter at intervals of 3-5 min for up to 20 min (blanks without cytosol were subtracted). When lipids were added, they were preincubated with the membranes, and 10 μM GTPγS replaced MgGTP. Where wortmannin was added, it was preincubated with both cytosol and membrane fractions for 15 min on ice. Where EE-Rac1 was added, it was preloaded with different guanine nucleotides at a 5-fold excess over bound GDP.

[7] = tested on: EE-Rac1; experiment: Rac-GEF assay with neutrophil cytosol and membrane fractions; assay type: biochemical; conditions: PtdIns(3,4,5)P3 alone (30 μM); FIG. 1C
Experimental: This assay was essentially as for ROS production, except pure, lipid-modified EE-Rac1 (30-50 nM final concentration) was added to the cytosol, and GTP, GTPγS, NADPH, FAD and luminol omitted. Three min after mixing membrane and cytosol fractions, [α^32P]-GTP (20 μCi per sample) was added. Four min later, the reaction was stopped and EE-Rac1 pulled down using anti-EE antibody coupled to protein G sepharose. The total dpm on EE-Rac1 were quantified by scintillation counting (blanks without EE-Rac1 were subtracted).

Molecule: P-Rex1: novel 185 kD PtdIns(3,4,5)P3- and Gβγ-regulated guanine-nucleotide exchange factor for Rac (SEQ ID NO:1)
protein phosphatase activity [2]: no lipid or protein phosphatase activity
lipid phosphatase activity [3]: no lipid or protein phosphatase activity
myc-positive cells with strongly exaggerated lamellipodia ('fried eggs', V12-Rac-like phenotype) ([4]; serum-starved, unstimulated cells transiently expressing myc-P-Rex1): around 30%

Molecule: PDGF
P-Rex1-positive cells exhibiting the V12-Rac-like phenotype ([4]; PDGF-stimulation for 5 min): 80%

Molecule: PtdIns3P
P-Rex1 binding to phospholipid vesicles containing the phosphoinositide [5]: only weakly

Molecule: PtdIns(3,5)P2
P-Rex1 binding to phospholipid vesicles containing the phosphoinositide [5]: only weakly

Molecule: phosphatidylinositol(3,4,5)P3 [PtdIns(3,4,5)P3]
EC50 ([1]; liposomes with PtdIns(3,4,5)P3 dose response, EE-Rac1, FIG. 5A, read-out: 50% maximal effect on Rac-GEF activity of P-Rex1): 300 nM
P-Rex1 binding to phospholipid vesicles containing the phosphoinositide [5]: substantially augmented
activation of ROS formation [6]: potently activate
activation of Rac1 [7]: stimulated activation

Continued, values first:

effect on P-Rex1 Rac-GEF activity in vitro ([1]; FIG. 5D, 5E): strongly inhibits
Molecule: C[C@H](CCC(=O)O)[C@H]1CC[C@H]2[C@@H]3[C@H](O)C[C@@H]4C[C@H](O)CC[C@]4(C)[C@H]3C[C@H](O)[C@]12C [cholate]

P-Rex1 binding to phospholipid vesicles containing the phosphoinositide [5]: only weakly
Molecule: PtdIns4P

P-Rex1 binding to phospholipid vesicles containing the phosphoinositide [5]: only weakly
Molecule: PtdIns5P

activation of P-Rex1 Rac-GEF activity by phosphoinositide ([1]; phosphoinositides compared at 10 μM, FIG. 5B): weak activation
Molecule: PtdIns(3,4)P2

P-Rex1 binding to phospholipid vesicles containing the phosphoinositide [5]: only weakly
Molecule: PtdIns(4,5)P2
